Literature values as cited in patent publication US6436649B1, “Method for detecting and/or quantifying a hapten in a homogeneous phase and device for implementation thereof” (priority 1996, dated 2002).
Where two headings read alike, the source gives them in different places.

Columns and labels:
E. Coli β-lactamase = E. Coli β-lactamase (Escherichia coli, UniProt P00811); details: enzyme E. Coli; cited from earlier work
[1] = tested on: P99/Q908R/Citro.F. β-lactamases; details: enzymes P99/Q908R/Citro.F.; cited from earlier work
type C β-lactamases [2] = target: T1, type C β-lactamases (Enterobacter cloacae, UniProt P05364); details: Ki of the parent inhibitor; cited from earlier work
T1 construct: Ki

P99/Q908R β-lactamases = P99/Q908R β-lactamases (Enterobacter cloacae, UniProt P05364); details: enzyme P99/Q908R, cited from earlier work
Citro.F. β-lactamase = Citro.F. β-lactamase (Citrobacter freundii, UniProt P05193); details: enzyme Citro.F.; cited from earlier work
type C β-lactamases [3] = tested on: T2, type C β-lactamases; details: selected inhibitors, over the β-lactamases; cited from earlier work
T2 construct: rows headed: Km; kcat

Chain of E. Coli β-lactamase (P00811 20-377): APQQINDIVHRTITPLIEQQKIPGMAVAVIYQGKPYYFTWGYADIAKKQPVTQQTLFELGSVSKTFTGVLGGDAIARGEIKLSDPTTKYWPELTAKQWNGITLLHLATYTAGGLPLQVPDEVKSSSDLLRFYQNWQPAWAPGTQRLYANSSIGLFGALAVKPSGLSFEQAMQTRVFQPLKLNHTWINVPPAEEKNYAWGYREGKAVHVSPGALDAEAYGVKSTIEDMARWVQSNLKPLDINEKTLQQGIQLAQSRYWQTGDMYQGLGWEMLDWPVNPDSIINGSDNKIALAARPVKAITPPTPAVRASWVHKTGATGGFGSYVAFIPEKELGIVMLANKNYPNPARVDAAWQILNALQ
Chain of Citro.F. β-lactamase (P05193 21-381): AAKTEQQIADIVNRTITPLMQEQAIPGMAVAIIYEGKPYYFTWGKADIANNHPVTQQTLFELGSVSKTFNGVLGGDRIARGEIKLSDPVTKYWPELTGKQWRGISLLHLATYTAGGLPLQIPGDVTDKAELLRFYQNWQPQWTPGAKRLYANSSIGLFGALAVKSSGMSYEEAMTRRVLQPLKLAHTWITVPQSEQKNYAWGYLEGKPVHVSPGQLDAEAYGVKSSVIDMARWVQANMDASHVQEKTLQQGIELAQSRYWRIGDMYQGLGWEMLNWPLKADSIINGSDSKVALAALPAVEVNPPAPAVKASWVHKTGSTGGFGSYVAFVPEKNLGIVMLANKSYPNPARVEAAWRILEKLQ

SMILES	Km (E. Coli β-lactamase) [µM]	kcat (E. Coli β-lactamase)	Km (P99/Q908R β-lactamases) [µM]	kcat (P99/Q908R β-lactamases) [S^−1]	also measured
CC1(C)S[C@@H]2[C@H](NC(=O)Cc3ccccc3)C(=O)N2[C@H]1C(=O)O [Benzylpenicillin]	4.4	45 S^−1	–	–	Km [1]: 0.5 µM; kcat [1]: 20 S^−1
CC1(C)S[C@@H]2[C@H](NC(=O)C(C(=O)O)c3ccccc3)C(=O)N2[C@H]1C(=O)O (stereo partly drawn) [Carbenicillin]	0.02	0.003 S^−1	0.01	0.002	Ki (type C β-lactamases [2]): 10 nM; Km (Citro.F. β-lactamase): 0.0005 µM; kcat (Citro.F. β-lactamase): 0.004 S^−1
Cc1nnc(SCC2=C(C(=O)O)N3C(=O)[C@@H](NC(=O)Cn4cnnn4)[C@H]3SC2)s1 [Cefazolin]	400	3000 150 S^−1	–	–	–
CO/N=C(\C(=O)N[C@@H]1C(=O)N2C(C(=O)O)=C(COC(C)=O)CS[C@H]12)c1csc(N)n1 [Cefotaxime]	1.7	0.17 S^−1	0.01	0.01	–
CO/N=C(\C(=O)N[C@@H]1C(=O)N2C(C(=O)O)=C(COC(N)=O)CS[C@H]12)c1ccco1 [Cefuroxime]	0.15	0.15 S^−1	0.02	0.04	Km (type C β-lactamases [3]): 0.02 µM
CC(=O)OCC1=C(C(=O)O)N2C(=O)[C@@H](NC(=O)CC#N)[C@H]2SC1 [Cephaestrile]	–	–	140	143	–
CC(=O)OCC1=C(C(=O)O)N2C(=O)[C@@H](NC(=O)[C@H](N)c3ccccc3)[C@H]2SC1 [Cephaglycine]	–	–	–	1	Km (P99/Q908R β-lactamases; read-out: Km): 2 µM
CC1=C(C(=O)O)N2C(=O)[C@@H](NC(=O)[C@H](N)c3ccccc3)[C@H]2SC1 [Cephalexin]	4	38 S^−1	–	100	Km (P99/Q908R β-lactamases; read-out: Km): 10 µM
